From patent US20030186888A1, “Diastereo analog of peptide SPFK-amide with selective anti-microbial activity and a method thereof” (priority 2002, published 2003)
“Also recorded” adds a separate entry of the source. Square brackets hold non-standard residues; d marks the D form. Peptide text beside a SMILES is read from it.

Experiments:
Format in all cases: cell-based
[1] = tested on: rat erythrocytes
Protocol: In further embodiment of the present invention, hemolytic activity of the peptides was assessed on freshly isolated rat erythrocytes. Heparinized rat blood in saline was initially centrifuged at 1000×g for 10 min to remove the buffy coat. The erythrocyte suspension was further washed thrice with 5 mM Hepes, pH 7.4 containing 150 mM NaCl. Aliquots of cell suspension ( 10^6 cells) in eppendorf tubes were incubated with the peptide in […]° C. for 30 min with gentle mixing. The tubes were then centrifuged and the absorbance of the supernatants was measured at 540 nm. The lysis obtained with 1% triton X 100 was taken as 100%. FIG. 5. Hemolysis of rat erythrocytes as a function of peptide concentration concentration Erythrocytes (-10^6/ml) were incubated in Hepes buffered isotonic saline containing various concentrations of SPFK analogs. SPFK (A). Other symbols same as that in FIG. 1.

[2] = tested on: microorganisms tested; test: Antimicrobial activity (growth inhibition, MIC); conditions: growth of the microorganisms tested
Protocol: (§1) In further embodiment of the present invention, for determining antimicrobial activity, antimicrobial activity was assayed as follows: Different concentrations of peptides were added to 1 ml of synthetic medium [KH2PO4, 10.5 g; K2HPC>4, 4.5 g; (NH4)2SO4, 1 g; MgSO4, 0.1 g; L-arginine, 0.1 g and glucose 1% for one litre of medium] for E. coli or nutrient broth for other microorganisms, containing an inocula of the test organism adjusted to ˜10^6 CFU/ml. Microbial growth was determined by monitoring the increase in ODeoo after incubating under aerobic conditions at 37° C. for 6-8 h (30° C. for P. aeruginosa). The bactericidal activity of the peptides was determined by plating suitably diluted cultures after incubation with the peptides on nutrient agar plates. The plates were incubated at 37° C. for 18 h for colony counting. Outer membrane permeabilization assays were done by fluorescent monitoring of uptake of N-phenyl-1-N-naphthyl amine (NPN) (26). […] The excitation monochromator was set at 350 nm and emission at 420 nm was continuously monitored after addition of the peptide from an aqueous stock solution. […] Inner membrane permeability of E. coli W 160.37 was monitored by measuring the p-galactosidase activity in preinduced cells (with 5×10′^4 M IPTG), in the presence of different concentration of the peptide using 0-nitro phenyl-3-D-galactoside (ONPG)(27).

[3] = tested on: E. coli; test: Bactericidal activity by plating and colony counting; conditions: on E. coli
Protocol: as §1

Question: With `CC[C@H](C)[C@H](NC(=O)[C@H](Cc1c[nH]c2ccccc12)NC(=O)[C@H](CCCCN)NC(=O)[C@H](CO)NC(=O)[C@@H](CC(C)C)NC(=O)[C@H](Cc1ccccc1)NC(=O)[C@@H](NC(=O)[C@H](CCCCN)NC(=O)[C@@H](CC(C)C)NC(=O)[C@H](CC(C)C)NC(=O)[C@H](CCCCN)NC(=O)[C@@H]1CCCN1)[C@@H](C)O)C(=O)NCC(=O)O` [DSac] (H-PKL[dL]KTF[dL]SKWIG-OH) as the compound, how does the “hemolytic activity (in words)” value [1] read?
Answer: very little hemolytic activity

Question: For `CC[C@H](C)[C@H](NC(=O)[C@H](Cc1c[nH]c2ccccc12)NC(=O)[C@H](CCCCN)NC(=O)[C@H](CO)NC(=O)[C@@H](CC(C)C)NC(=O)[C@H](Cc1ccccc1)NC(=O)[C@@H](NC(=O)[C@H](CCCCN)NC(=O)[C@@H](CC(C)C)NC(=O)[C@H](CC(C)C)NC(=O)[C@H](CCCCN)NC(=O)[C@@H]1CCCN1)[C@@H](C)O)C(=O)NCC(N)=O` [DSam] (H-PKL[dL]KTF[dL]SKWIG-NH2; N-terminus assumed), which “antimicrobial activity / MIC (in words)” value [2] is on record?
Answer: exhibits activity with MIC's comparable to that of SPFK and its retro isomers; also recorded: MICs comparable to that of SPFK and the retro analogs

Question: And the bactericidal concentration [3]?
Answer: > 50 µg/mL

Question: What about the bacteriostatic concentration [3] of the same compound?
Answer: 30 µg/L
